Laboratory results reported in the NIST ThermoML archive (doi:10.1021/acs.jced.9b00415).

Test: xn = mol fraction of the nth substance listed
Conditions: 102 kPa, Liquid; for viscosity: Concentric cylinders viscometry; for mass density: Vibrating tube method

CCCCn1cc[n+](C)c1.O=[N+]([O-])[O-] [1-butyl-3-methylimidazolium nitrate] + CCCCn1cc[n+](C)c1.[Cl-]
Conditions	mass density [kg/m3]	viscosity [mPa·s]
298.15 K, x1 = 0.8	1139.9	373.6
303.15 K, x1 = 0.8	1136.8	266.4
308.15 K, x1 = 0.8	1133.7	194.9
313.15 K, x1 = 0.5	1109.6	365.1
313.15 K, x1 = 0.6	1116.9	275.4
313.15 K, x1 = 0.8	1130.6	146
318.15 K, x1 = 0.2	–	721.3
318.15 K, x1 = 0.5	1106.6	262.7
318.15 K, x1 = 0.6	1113.9	201.5
318.15 K, x1 = 0.8	1127.6	111.7
323.15 K, x1 = 0.2	–	495.6
323.15 K, x1 = 0.4	1097.9	259.8
323.15 K, x1 = 0.5	1103.7	193.7
323.15 K, x1 = 0.6	1110.9	150.8
323.15 K, x1 = 0.8	1124.6	87.1
328.15 K, x1 = 0.2	1080.2	349.9
328.15 K, x1 = 0.4	1095	191.3
328.15 K, x1 = 0.5	1100.8	145.9
328.15 K, x1 = 0.6	1107.9	115.2
328.15 K, x1 = 0.8	1121.6	69.09
333.15 K, x1 = 0.1	1070.3	378.4
333.15 K, x1 = 0.2	1077.3	253.4
333.15 K, x1 = 0.4	1092	144
333.15 K, x1 = 0.5	1097.9	112
333.15 K, x1 = 0.6	1104.9	89.66
333.15 K, x1 = 0.8	1118.6	55.68
338.15 K, x1 = 0.1	1067.5	271.8
338.15 K, x1 = 0.2	1074.4	187.6
338.15 K, x1 = 0.4	1089.1	110.6
338.15 K, x1 = 0.5	1095	87.65
338.15 K, x1 = 0.6	1101.9	71.02
338.15 K, x1 = 0.8	1115.7	45.53
343.15 K, x1 = 0.1	1064.8	199.9
343.15 K, x1 = 0.2	1071.6	141.9
343.15 K, x1 = 0.4	1086.2	86.47
343.15 K, x1 = 0.5	1092.1	69.7
343.15 K, x1 = 0.6	1099	57.14
343.15 K, x1 = 0.8	1112.7	37.72
348.15 K, x1 = 0.1	1062.1	150.1
348.15 K, x1 = 0.2	1068.8	109.3
348.15 K, x1 = 0.4	1083.3	68.73
348.15 K, x1 = 0.5	1089.2	56.25
348.15 K, x1 = 0.6	1096.1	46.63
348.15 K, x1 = 0.8	1109.7	31.62
353.15 K, x1 = 0.1	1059.3	115
353.15 K, x1 = 0.2	1065.9	85.68
353.15 K, x1 = 0.4	1080.5	55.46
353.15 K, x1 = 0.5	1086.4	46.03
353.15 K, x1 = 0.6	1093.2	38.55
353.15 K, x1 = 0.8	1106.8	26.81
358.15 K, x1 = 0.1	1056.6	89.62
358.15 K, x1 = 0.2	1063.1	68.25
358.15 K, x1 = 0.4	1077.6	45.37
358.15 K, x1 = 0.5	1083.5	38.16
358.15 K, x1 = 0.6	1090.3	32.27
358.15 K, x1 = 0.8	1103.8	22.96
363.15 K, x1 = 0.1	1053.8	71.03
363.15 K, x1 = 0.2	1060.4	55.17
363.15 K, x1 = 0.4	1074.8	37.6
363.15 K, x1 = 0.5	1080.6	32.02
363.15 K, x1 = 0.6	1087.4	27.32
363.15 K, x1 = 0.8	1100.9	19.87

CCCCn1cc[n+](C)c1.CS(=O)(=O)[O-] [1-butyl-3-methylimidazolium methanesulfonate] + CCCCn1cc[n+](C)c1.[Cl-]
Conditions	mass density [kg/m3]	viscosity [mPa·s]
323.15 K, x1 = 0.3	1098.9	388.2
323.15 K, x1 = 0.4	1106.3	365.5
323.15 K, x1 = 0.5	1116.6	267.1
328.15 K, x1 = 0.1	1076.7	490.5
328.15 K, x1 = 0.2	1086.1	428.3
328.15 K, x1 = 0.3	1096.1	278.2
328.15 K, x1 = 0.4	1103.4	261.8
328.15 K, x1 = 0.5	1113.7	195.6
333.15 K, x1 = 0.1	1074	346.3
333.15 K, x1 = 0.2	1083.4	304.6
333.15 K, x1 = 0.3	1093.3	204.2
333.15 K, x1 = 0.4	1100.6	192.2
333.15 K, x1 = 0.5	1110.9	146.5
333.15 K, x1 = 0.6	1119.1	128
338.15 K, x1 = 0.1	1071.4	250.7
338.15 K, x1 = 0.2	1080.7	222
338.15 K, x1 = 0.3	1090.6	153.2
338.15 K, x1 = 0.4	1097.9	144.3
338.15 K, x1 = 0.5	1108.1	112.1
338.15 K, x1 = 0.6	1116.3	98.76
338.15 K, x1 = 0.7	1124.3	82.97
343.15 K, x1 = 0.1	1068.7	185.6
343.15 K, x1 = 0.2	1078	165.4
343.15 K, x1 = 0.3	1087.9	117.2
343.15 K, x1 = 0.4	1095.2	110.5
343.15 K, x1 = 0.5	1105.3	87.31
343.15 K, x1 = 0.6	1113.5	77.62
343.15 K, x1 = 0.7	1121.5	65.89
343.15 K, x1 = 0.8	1129.7	56.84
348.15 K, x1 = 0.1	1066.1	140.3
348.15 K, x1 = 0.2	1075.4	125.8
348.15 K, x1 = 0.3	1085.2	91.36
348.15 K, x1 = 0.4	1092.5	86.21
348.15 K, x1 = 0.5	1102.6	69.19
348.15 K, x1 = 0.6	1110.7	62.01
348.15 K, x1 = 0.7	1118.6	53.15
348.15 K, x1 = 0.8	1126.8	46.31
348.15 K, x1 = 0.9	1134.4	39.65
353.15 K, x1 = 0.1	1063.5	108.1
353.15 K, x1 = 0.2	1072.8	97.5
353.15 K, x1 = 0.3	1082.5	72.39
353.15 K, x1 = 0.4	1089.7	68.4
353.15 K, x1 = 0.5	1099.8	55.7
353.15 K, x1 = 0.6	1107.9	50.28
353.15 K, x1 = 0.7	1115.7	43.48
353.15 K, x1 = 0.8	1123.9	38.24
353.15 K, x1 = 0.9	1131.4	33.04
358.15 K, x1 = 0.1	1060.9	84.67
358.15 K, x1 = 0.2	1070.1	76.85
358.15 K, x1 = 0.3	1079.8	58.23
358.15 K, x1 = 0.4	1086.9	55.11
358.15 K, x1 = 0.5	1097	45.47
358.15 K, x1 = 0.6	1105	41.33
358.15 K, x1 = 0.7	1112.8	36.03
358.15 K, x1 = 0.8	1120.9	31.96
358.15 K, x1 = 0.9	1128.4	27.85
363.15 K, x1 = 0.1	1058.2	67.42
363.15 K, x1 = 0.2	1067.3	61.54
363.15 K, x1 = 0.3	1077	47.51
363.15 K, x1 = 0.4	1084.1	45.04
363.15 K, x1 = 0.5	1094.1	37.62
363.15 K, x1 = 0.6	1102.1	34.41
363.15 K, x1 = 0.7	1109.9	30.22
363.15 K, x1 = 0.8	1117.9	27.02
363.15 K, x1 = 0.9	1125.3	23.72

CCCCn1cc[n+](C)c1.CS(=O)(=O)[O-] [1-butyl-3-methylimidazolium methanesulfonate] + CCCCn1cc[n+](C)c1.O=[N+]([O-])[O-]
Conditions	mass density [kg/m3]	viscosity [mPa·s]
303.15 K, x2 = 0.9	1154.3	180.1
308.15 K, x2 = 0.9	1151.1	135.4
313.15 K, x2 = 0.8	1149.3	113.6
313.15 K, x2 = 0.9	1147.9	104
318.15 K, x2 = 0.6	1150.5	103
318.15 K, x2 = 0.7	1148.5	97.85
318.15 K, x2 = 0.8	1146.2	88.38
318.15 K, x2 = 0.9	1144.7	81.49
323.15 K, x2 = 0.6	1147.3	80.7
323.15 K, x2 = 0.7	1145.4	77.05
323.15 K, x2 = 0.8	1143	70.03
323.15 K, x2 = 0.9	1141.6	64.96
328.15 K, x2 = 0.4	1146.9	70.76
328.15 K, x2 = 0.5	1145.4	66.57
328.15 K, x2 = 0.6	1144.1	64.37
328.15 K, x2 = 0.7	1142.2	61.72
328.15 K, x2 = 0.8	1139.9	56.42
328.15 K, x2 = 0.9	1138.5	52.61
333.15 K, x2 = 0.3	1144.9	59.13
333.15 K, x2 = 0.4	1143.8	56.85
333.15 K, x2 = 0.5	1142.2	53.7
333.15 K, x2 = 0.6	1141	52.18
333.15 K, x2 = 0.7	1139.1	50.22
333.15 K, x2 = 0.8	1136.8	46.14
333.15 K, x2 = 0.9	1135.4	43.23
338.15 K, x2 = 0.3	1141.8	48.04
338.15 K, x2 = 0.4	1140.6	46.37
338.15 K, x2 = 0.5	1139.1	43.99
338.15 K, x2 = 0.6	1137.9	42.9
338.15 K, x2 = 0.7	1136	41.44
338.15 K, x2 = 0.8	1133.7	38.25
338.15 K, x2 = 0.9	1132.3	35.99
343.15 K, x2 = 0.3	1138.6	39.58
343.15 K, x2 = 0.4	1137.5	38.34
343.15 K, x2 = 0.5	1136	36.52
343.15 K, x2 = 0.6	1134.8	35.74
343.15 K, x2 = 0.7	1132.9	34.63
343.15 K, x2 = 0.8	1130.6	32.11
343.15 K, x2 = 0.9	1129.3	30.32
348.15 K, x2 = 0.1	1138.3	34.98
348.15 K, x2 = 0.2	1136.8	34.5
348.15 K, x2 = 0.3	1135.5	33.03
348.15 K, x2 = 0.4	1134.4	32.1
348.15 K, x2 = 0.5	1132.9	30.69
348.15 K, x2 = 0.6	1131.7	30.13
348.15 K, x2 = 0.7	1129.9	29.28
348.15 K, x2 = 0.8	1127.6	27.25
348.15 K, x2 = 0.9	1126.2	25.81
353.15 K, x2 = 0.1	1135.2	29.38
353.15 K, x2 = 0.2	1133.6	29.04
353.15 K, x2 = 0.3	1132.4	27.88
353.15 K, x2 = 0.4	1131.3	27.17
353.15 K, x2 = 0.5	1129.8	26.08
353.15 K, x2 = 0.6	1128.6	25.68
353.15 K, x2 = 0.7	1126.8	25.02
353.15 K, x2 = 0.8	1124.5	23.36
353.15 K, x2 = 0.9	1123.2	22.2
358.15 K, x2 = 0.1	1132	24.94
358.15 K, x2 = 0.2	1130.5	24.71
358.15 K, x2 = 0.3	1129.3	23.79
358.15 K, x2 = 0.4	1128.2	23.23
358.15 K, x2 = 0.5	1126.8	22.38
358.15 K, x2 = 0.6	1125.6	22.09
358.15 K, x2 = 0.7	1123.8	21.57
358.15 K, x2 = 0.8	1121.5	20.21
358.15 K, x2 = 0.9	1120.2	19.26
363.15 K, x2 = 0.1	1128.9	21.39
363.15 K, x2 = 0.2	1127.4	21.27
363.15 K, x2 = 0.3	1126.2	20.51
363.15 K, x2 = 0.4	1125.1	20.04
363.15 K, x2 = 0.5	1123.7	19.36
363.15 K, x2 = 0.6	1122.5	19.18
363.15 K, x2 = 0.7	1120.7	18.76
363.15 K, x2 = 0.8	1118.5	17.63
363.15 K, x2 = 0.9	1117.2	16.86
